Reference: patent US6544976B1, “Neurotrophic 2-azetidinecarboxylic acid derivatives, and related compositions and methods” (Ortho-McNeil Pharmaceutical, Inc., priority 1999, dated 2003)

Columns and labels:
DRG = experiment: Dorsal root ganglion (DRG) culture, neurite outgrowth; type: cell-based, CD rats; set-up: key: + = Positive results for each experiment; − = Negative results for each experiment; NA = Not active; settings: test compound 50-250 nM; neurite outgrowth examined on days 1-5; positive (+) if compound induced neurites of ≧1 diameter of the DRG
Description: DRG are dissected from newborn or 1-day-old CD rats and placed into PBS on ice. After rinsing twice with sterile plating medium, DRG are transferred to empty wells of a 6-well plate coated with polyomithine/laminin (Becton Dickinson Labware) using #7 curved forceps. Three ml/well of plating medium are then added very gently, so as not to disturb the DRG. Plating medium is Leibovitz's L-15 medium (Gibco), plus 0.6% glucose, 33 mM KCl, 10% FCS, 10 mM Hepes and penicillin/streptomycin/glutamine. After overnight incubation at about 37° C. in 5% CO2, this medium is replaced with 3 mL/well of assay medium [Leibovitz's L-15 medium plus 0.6% glucose, 1% FCS, 1% N-2 supplement (Gibco), […], 10 mM Hepes, and penicillin/streptomycin/glutamine] containing either vehicle (DMSO, 1/200,000), positive control (2-4 ng/mL NGF) or test compound (50-250 nM). All media are prepared fresh daily. DRG are microscopically examined for neurite outgrowth on days 1-5.

[1] = test system: Human M17 Neuroblastoma Cells; experiment: Neurite outgrowth assay (MAP-2 immunofluorescence) in M17 neuroblastoma cells; type: cell-based; settings: MAP-2 fluorescence, active if greater than mean DMSO-treated control on same plate, NA = Not active
Description: M17 human neuroblastoma cells are cultured in 1:1 ratio of EMEM and Ham's F12 with 1×NEAA and 10% FBS. The culture media contains 1×PSN antibiotic and is exchanged every other day, and the cells are passed in log phase near confluence.
(§1) Cultures are incubated with normal horse serum (1:50; Vector Labs) for about 20 min, rinsed and then incubated with primary antibody, microtubule associated-protein 2 (anti-mouse MAP-2; 1:1000; Chemicon) for about 2 h at about RT. Following primary antibody, cultures are rinsed and incubated with fluorescein anti-mouse IgG (rat absorbed; 1:50; Vector Labs) for about 1 h. After fluorescein incubation, the cultures are rinsed and read in PBS on a fluorescent plate reader (excitation: 485 nm; emission: 530 nm). A compound is regarded as active if the neurite outgrowth response is greater than the mean DMSO-treated control response on the same plate. The response to test compound is reported as percent of DMSO-treated control (absent the percentage sign). The signal-to-noise separation is consistent: the fluorescence from DMSO control wells is at least two-fold greater than blank wells.

facial nerve = experiment: Rat facial nerve compression model; type: in vivo, Long-Evans rats; settings: p.o. about 20 mg/kg twice a day for 15 days after surgery; compared to vehicle and internal control; FIG. 1
Description: In this model, compressing the facial nerve causes paralysis of the whisker muscle on that side of the face. The untreated facial nerve on the other side functions as an internal control. […] The whisker movement recovery rate on the paralyzed side compared to the vehicle and internal control is shown in this FIGURE.
Long-Evans rats are anesthetized under ketamine (60 mg/kg)/xylazine (6 mg/kg). The facial nerve is exposed and mechanically compressed with forceps near the stylomastoid foramen unilaterally with the opposite, non-lesioned side serving as an internal control. […] Rats received test compound p.o. at about 20 mg/kg twice a day for 15 days after the surgery. Control rats received vehicle only. Three to eight rats are tested in each group. Restoration of whisker movement after the treatment with compounds of the present invention is recorded at different post-operative time points daily, up to two weeks, and is shown in FIG. 1.

[2] = test system: Primary Rat Hippocampal Cells; experiment: Neurite outgrowth assay (MAP-2 immunofluorescence) in primary rat hippocampal cells; type: cell-based; settings: MAP-2 fluorescence, active if greater than mean DMSO-treated control on same plate, NA = Not active
Description: Hippocampal cells are dissected from the brains of embryonic day 18 rat pups and dissociated with trypsin (1 mg/mL) and trituration. Cells are seeded at 30,000 cells/well in 96-well plates filled with 100 μL MEM and 10%FBS. At 7 days in culture, cells are fixed with 4% paraformaldehyde and immunofluorescence is performed.
as §1

PC12 cells = settings: cultures of PC12 cells; cited from earlier work
sensory ganglia = settings: cultures of sensory ganglia; cited from earlier work

Compound	M17 Cell Response [1]	Rat Hippocampal Cell Response [2]	further results
CCC(C)(C)C(=O)C(=O)N1CC[C@H]1C(=O)OCCCc1cccnc1 [Compound 1, (2S)-[3-(3-Pyridyl)1-propyl]-1-(1,2-dioxo-3,3-dimethylpentyl)azetidine-2-carboxylate]	140% of DMSO-treated control		DRG (DRG): +; Restoration of whisker movement on the paralyzed side (facial nerve): restored more rapidly
CCC(C)(C)C(=O)C(=O)N1CC[C@H]1C(=O)OC(C)(C)CCc1cccnc1 [Compound 2, (2S)-[3-(3-Pyridyl)-1,1-dimethyl-1-propyl]-1-(1,2-dioxo-3,3-dimethylpentyl)azetidine-2-dicarboxylate]	134% of DMSO-treated control		DRG (DRG): +
CCC(C)(C)C(=O)C(=O)N1CC[C@H]1C(=O)OCCC(c1ccccc1)c1ccccc1 [Compound 3, (2S)-(3,3-Diphenyl-1-propyl)1-(1,2-dioxo-3,3-dimethylpentyl) azetidine-2-carboxylate]	110% of DMSO-treated control	119% of DMSO-treated control	
CCC(C)(C)C(=O)C(=O)N1CC[C@H]1C(=O)OCCCCc1ccc(OC)cc1 [Compound 4, (2S)-[4-(4-Methoxyphenyl)-1-butyl]-1-(1,2-dioxo-3,3-dimethylpentyl)azetidine-2-carboxylate]	107% of DMSO-treated control		
CC(C)(C)NC(=O)N1CC[C@H]1C(=O)OCCCc1cccnc1 [Compound 7]		123% of DMSO-treated control	
O=C(C(=O)N1CC[C@H]1C(=O)OCCCc1cccnc1)c1ccccc1 [Compound 9]		112% of DMSO-treated control	
CC(C)(C)C(=O)C(=O)N1CC[C@H]1C(=O)OCCCc1cccnc1 [Compound 10, (2S)-[3-(3-Pyridyl)-1-propyl]-1-(1,2-dioxo-3,3-dimethylbutyl)azetidine-2-carboxylate]		123% of DMSO-treated control	
O=C(C(=O)N1CC[C@H]1C(=O)OCCCc1cccnc1)c1cccs1 [Compound 11, (2S)-[3-(3-Pyridyl)-1-propyl]-1-[1,2-dioxo-2-(thien-2-yl)ethyl]azetidine-2-carboxylate]		114% of DMSO-treated control	
Cc1cc(C(=O)N2CC[C@H]2C(=O)OCCCc2cccnc2)nn1C [Compound 13, (2S)-[3-(3-Pyridyl)-1-propyl]-1-[(1,5-dimethylpyrazol-3-yl)carbonyl]azetidine-2-carboxylate]		123% of DMSO-treated control	
CCC(C)(C)C(=O)C(=O)N1CC[C@H]1c1nnnn1CCCc1cccnc1 [Compound 14, (2S)-1-(1,2-Dioxo-3,3-dimethylpentyl)2-(1-[3-(3-pyridyl)-1-propyl]-1H-tetrazol-5-yl)azetidine]		118% of DMSO-treated control	
COc1ccc(CCCCOC(=O)[C@@H]2C[C@@H](C(=O)OCCCCc3ccc(OC)cc3)N2C(=O)C(=O)c2ccccc2)cc1 [Compound 15, (2S,4S)-Bis-[4-(4-methoxyphenyl)-1-butyl)-1-(1,2-dioxo-2-phenylethyl)azetidine-2,4-dicarboxylate]		126% of DMSO-treated control	
CCC(C)(C)C(=O)C(=O)N1[C@@H](C(=O)OCCCCc2ccc(OC)cc2)C[C@H]1C(=O)OCCCCc1ccc(OC)cc1 [Compound 16, (2S,4R)-Bis-[4-(4-methoxyphenyl)-1-butyl]-1-(1,2-dioxo-3,3-dimethylpentyl)azetidine-2,4-dicarboxylate]	114% of DMSO-treated control		
CCC(C)(C)C(=O)C(=O)N1[C@@H](C(=O)OCCC(c2ccccc2)c2ccccc2)C[C@H]1C(=O)OCCC(c1ccccc1)c1ccccc1 [Compound 17, (2S,4R)-Bis-(3,3-diphenyl-1-propyl)-1-(1,2-dioxo-3,3-dimethylpentyl)azetidine-2,4-dicarboxylate]	106% of DMSO-treated control		
CCC(C)(C)C(=O)C(=O)N1C(C(=O)OCCCc2cccnc2)C[C@H]1C(=O)OCCCc1cccnc1 (stereo partly drawn) [Compound 18, (2S,4R)-Bis-[3-(3-pyridyl)-1-propyl]-1-(1,2-dioxo-3,3-dimethylpentyl)azetidine-2,4-dicarboxylate]	106% of DMSO-treated control	137% of DMSO-treated control	
CCC(C)(C)C(=O)C(=O)N1[C@@H](C(=O)OCCCCc2ccc(OC)cc2)C[C@@H]1C(=O)OCCCCc1ccc(OC)cc1 [Compound 19, (2R,4R)-Bis-[4-(4-methoxyphenyl)-1-butyl]-1-(1,2-dioxo-3,3-dimethylpentyl)azetidine-2,4-dicarboxylate]	111% of DMSO-treated control		
CCC(C)(C)C(=O)C(=O)N1C(C(=O)OCCCc2cccnc2)C[C@@H]1C(=O)OCCCc1cccnc1 (stereo partly drawn) [Compound 20, (2R,4R)-Bis-[3-(3-pyridyl)-1-propyl]-1-(1,2-dioxo-3,3-dimethylpentyl)azetidine-2,4-dicarboxylate]	103% of DMSO-treated control		
CCC(C)(C)C(=O)C(=O)N1[C@H](C(=O)OCCCCc2ccc(OC)cc2)C[C@H]1C(=O)OCCCCc1ccc(OC)cc1 [Compound 21, (2S,4S)-Bis-[4-(4-methoxyphenyl)-1-butyl]-1-(1,2-dioxo-3,3-dimethylpentyl)azetidine-2,4-dicarboxylate]	103% of DMSO-treated control		
C=CC[C@@H]1/C=C(\C)C[C@H](C)C[C@H](OC)[C@H]2O[C@@](O)(C(=O)C(=O)N3CCCC[C@H]3C(=O)O[C@H](/C(C)=C/[C@@H]3CC[C@@H](O)[C@H](OC)C3)[C@H](C)[C@@H](O)CC1=O)[C@H](C)C[C@@H]2OC [FK506]			neurotrophic activity (PC12 cells): shows neurotrophic activity; neurotrophic activity (sensory ganglia): shows neurotrophic activity
